Laboratory results from paper PMC11249646, “Small-Molecule Disruptors of the Interaction between Calcium- and Integrin-Binding Protein 1 and Integrin αIIbβ3 as Novel Antiplatelet Agents” (ACS Pharmacology & Translational Science, 2024).
Where two headings read alike, the source gives them in different places.

Key:
[1] = molecular target: T1, GST-CIB1 : F-scrambled peptide (Homo sapiens, UniProt Q99828); assay: FP scrambled-peptide counter screen, 1536-well format; assay type: binding; conditions: scrambled-peptide counterscreen
T1 construct: made in house; host or cells: BL-21 plus RIL cells (E. coli)
T1 sequence (Q99828 1-191): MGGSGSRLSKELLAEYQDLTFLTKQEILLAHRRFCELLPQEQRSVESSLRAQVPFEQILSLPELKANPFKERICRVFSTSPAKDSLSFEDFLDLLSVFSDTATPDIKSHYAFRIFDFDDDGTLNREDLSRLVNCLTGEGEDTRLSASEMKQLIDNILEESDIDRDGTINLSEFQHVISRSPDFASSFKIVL

[2] = In vitro ADME: RLM stability; conditions: rat liver microsomes; read-out: Rat Liver Microsome Stability (t1/2)
[3] = molecular target: T2, CIB1-(His)6 : F-αIIb peptide (Homo sapiens, UniProt Q99828); assay: MST competitive binding study; conditions: 200 nM F-αIIb, 4 μM CIB1-(His)6; n = 3/concentration
T2 construct: made in house
T2 sequence (Q99828 1-191): T1 sequence (Q99828 1-191)
Experimental: We sought to resolve this discrepancy by performing a competition binding study similar to the conditions of the FP HTS assay by utilizing the F-αIIb probe.
Figure 4 MST competitive binding assay. We selected 200 nM F-αIIb and a CIB1 concentration of 4 μM and tested both compounds. […] Panel (B) highlights the concentration range in which we observe different activities between the two compounds.
The binding affinity of the compounds to the CIB1-(His)6 protein in the presence of αIIb peptide was evaluated using FITC-labeled αIIb as well. Following manufacturer’s recommendation,[66] we first determined a minimum concentration of F-αIIb by performing a titration of the fluorophore (1 μM, 1:2, 8-points; final concentration range of 7.8 nM to 1 μM) in a 10 μL assay volume. Solutions were placed in standard capillaries and evaluated for the fluorescent signal using the Monolith NT.115 instrument. […] CIB1-(His)6 protein was titrated in a 2-fold dilution series (16-points, final concentration range of 15 nM to 500 μM), at a final volume of 12.5 μL. An equal volume of [2×] […] Solutions were placed in standard capillaries, incubated for approximately 1 h, and evaluated for a fluorescent signal with 50% LED excitation power, 20, 40, or 60% MST power (low, medium, high, respectively), MST on-time of 30 s, and off-time of 5 s.
Compounds were titrated in a 2-fold dilution series (16 points, final concentration range of 6.1 nM to 200 μM) and mixed with an equal volume CIB1-(His)6 protein and F-αIIb peptide (final concentrations of 4 μM and 200 nM, respectively). Solutions were incubated for 1 h at RT, then placed in standard capillaries, and evaluated for fluorescent signal (in triplicate) at the following parameters: 50% LED excitation power, 40% MST power, MST on-time of 30 s, and off-time of 5 s using Monolith NT.115 instrument. Dissociation constant (Kd) values were calculated by fitting the thermophoresis signal at 20 s of the thermograph using the MO Affinity Analysis software (Nanotemper Technologies, Munich, Germany) and confirmed using Graphpad Prism 7.

[4] = molecular target: T3, GST-CIB1 : F-αIIb peptide (Homo sapiens, UniProt Q99828); assay: FP assay in the presence of glutathione (GSH), thiol reactivity; assay type: binding
T3 construct: made in house; host or cells: BL-21 plus RIL cells (E. coli)
T3 sequence (Q99828 1-191): T1 sequence (Q99828 1-191)

SMILES: COc1ccccc1C(=O)c1no[n+]([O-])c1C(=O)c1ccccc1OC.O=C(O)C(F)(F)F [NCGC00351170-01]
- COUNTERSCREEN Efficacy (%) [1]: -14%
- COUNTERSCREEN Confirm? ([1]; YES/NO call): YES
- COUNTERSCREEN Curve Class ([1]; qHTS curve class): 4
- half-life [2]: 1.52 min
- EC50 [3]: 2100 nM
- IC50 ([4]; FP assay in the presence of glutathione (GSH +), read-out: GSH (+) Assay IC50): 1200 nM
- IC50 ([4]; FP assay without glutathione (GSH -), read-out: GSH (-) Assay IC50): 4000 nM
- GSH/CIB1 IC50 ratio ([4]; ratio of GSH (+) IC50 to GSH (-) IC50): 0.3
- GSH Assay Result ([4]; thiol reactivity call: No change / Active): No change
